Target: T1, myoferlin (MYOF) (Homo sapiens, UniProt Q9NZM1)
T1 construct: C2D domain (F3 construct, amino acids 1116–1272, GST fusion in pGEX4T-1; ~44 kDa in SPR)
T1 sequence (Q9NZM1 1116-1272): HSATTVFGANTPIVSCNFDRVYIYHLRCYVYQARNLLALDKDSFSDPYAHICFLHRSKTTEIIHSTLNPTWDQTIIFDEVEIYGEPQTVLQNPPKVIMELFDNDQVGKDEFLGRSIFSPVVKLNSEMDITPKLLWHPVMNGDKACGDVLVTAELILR
Test: SPR (Biacore X-100, C2D immobilized on CM5 chip); supported by competition pull-down with WJ460-biotin
Type: binding

## COc1ccccc1N1C(=O)CSC1c1cccc(C(=O)NCCCCc2ccccc2)c1 (stereo not shown) [WJ460]
  Kd: ~1.33 µM

Source: PMC6137146, “A small molecule targeting myoferlin exerts promising anti-tumor effects on breast cancer” (Nature Communications, 2018)
